Results reported in EP3207939A2, “USE OF A PROTEIN/PEPTIDE COMPLEX FOR TREATING AND PREVENTING ATHEROSCLEROSIS, METHOD FOR TREATING AND PREVENTING ATHEROSCLEROSIS (VARIANTS)” (Diamondzlite Limited, priority 2014, dated 2016).
Like-named read-outs stand apart in the source and are kept apart here.

Columns and labels:
[1] = cited from earlier work
[2] = tested on: atherosclerotic cells of the intima of human's aorta; assay: Intracellular cholesterol and lipid content in cultured atherosclerotic cells, in vitro model
[3] = tested on: cells extracted from normal or damaged sections of the intima of human's aorta; assay: Determination of the synthesis of collagen ([3H]-proline inclusion); assay type: cell-based; conditions: Verapamil 5 x 10^-5 M; control 2500 ± 102 dpm/103
Description: Cells extracted from normal or damaged sections of the intima of human's aorta were incubated for 24 hours in the presence of 5 µCi/ml [3H]-proline. Upon completion of incubation, inclusion of marked proline into the culture medium fraction treated by collagenase was determined by the method of Peterkofsky and Diegelmann. Table 1. Influence of lipostabil, lovastatin and cellex on the cholesterol content in atherosclerotic cells of the intima of human's aorta in vitro.

[4] = tested on: primary culture of atherosclerotic cells; assay: Ex vivo model: volunteers' blood serum added to primary culture of atherosclerotic cells, intracellular cholesterol; assay type: cell-based, human
Description: For the ex vivo model, blood was taken from volunteers immediately prior to Cellex intake and after the corresponding intervals after the intranasal intake (after 2, 4, and 6 hours for screening studies and assessment of the short-term effect, as well as after 4, 8, 12, and 24 hours for the assessment of duration of the effect).
Volunteers took PPC - Cellex at once in the form of an intranasal spray in complex with polynucleotides in the form of sodium salts of DNA - PPPC, 400 µg of a 0.1% solution (per total protein and DNA) - 2 injections of 200 µg in each nasal duct in the morning, the drug for comparison was Verapamil in the dose of 400 mg; the control group received intranasally 50 mM of glycine-phosphate buffer solution with the same pH (7.8) and with the same regimen. Blood was taken prior to drug or control intake (time "0") and 1, 2, 4, and 8 hours after the intake. Samples were prepared from the bloodserum, and serum samples were added to the primary culture of atherosclerotic cells. […] Consequently, starting from the 1 st hour after single intake of the claimed drug and from the 2nd hour after Verapamil intake, blood serum acquires antiatherosclerotic properties manifested in the contribution to reverse cholesterol transport from atherosclerotic cells. Antiatherosclerotic properties of serum are preserved for at least 12 hours after Verapamil intake and up to 18 hours after intake of the claimed drug. Table 5. Comparative table of the antiatherogenic action of Cellex and Verapamil in the ex vivo model.

[5] = tested on: cultured atherosclerotic cells; assay: Inclusion of [3H] thymidine (proliferative activity) in cultured atherosclerotic cells; assay type: cell-based, human
Description: For research on the impact of the original PPC and PPPC with the conditional name "Cellex" (hereinafter - Cellex, as a modifier and activator of biological reactions) on the level of reduction of the atherogenic potential of blood serum of patients having atherosclerosis according to the known method, a primary culture of subendothelial cells of the human's aorta was obtained from various sections of the intima of the thoracic aorta of men and women aged 40-65 years within 1.5-3 hours after sudden death, which differed by the degree of atherosclerotic disease, then it was treated by collagenase, and the cells were cultured.

[6] = rabbits, 28 days, food with 1% cholesterol, 0.6 g of beta-carotene per 1 kg of food; cited from earlier work
[7] = guinea pigs, 12 weeks, cited from earlier work
[8] = smoking people, 20 mg/day, 14 weeks; cited from earlier work
[9] = hypersensitive rats, 125-500 mg per 1 kg of food with cholesterol-rich food, 44 days; cited from earlier work
[10] = rabbits, single peroral administration; cited from earlier work
[11] = long-term administration, daily dose of 3 g

**Q.** Which “reduction of the concentration of low-density lipoproteins” value ([1]; daily dose of 4-8 mg) does the source give for `N[C@H](Cc1cc(I)c(Oc2cc(I)c(O)c(I)c2)c(I)c1)C(=O)O` [D-thyroxine] here?
**A.** 20%

**Q.** With `CC[C@H](C)C(=O)O[C@H]1C[C@@H](C)C=C2C=C[C@H](C)[C@H](CC[C@@H]3C[C@@H](O)CC(=O)O3)[C@H]21` [Lovastatin] as the compound, how does the “Content of intracellular cholesterol” value ([2]; concentration 10^-6 M, control 105 ± 11, average of three independent experiments) read?
**A.** 110 ± 10 µg/mg

**Q.** Which results are given for `COc1ccc(CCN(C)CCCC(C#N)(c2ccc(OC)c(OC)c2)C(C)C)cc1OC` (centres unmarked) [Verapamil]?
**A.** Triglycerides ([2]; Verapamil 5 x 10^-5 M, control 12.1 ± 1.7 µg/105): 76 ± 2 % of control; Free cholesterol ([2]; Verapamil 5 x 10^-5 M, control 46.8 ± 5.3 µg/105): 90 ± 8 % of control; Phospholipids ([2]; Verapamil 5 x 10^-5 M, control 71.4 ± 10.9 µg/105): 61 ± 8 % of control; Total cholesterol ([2]; Verapamil 10^-5 M): 61 ± 4 % of control; Total cholesterol ([2]; Verapamil 10^-6 M): 82 ± 8 % of control; Total cholesterol ([2]; Verapamil 10^-7 M, control 57.4 ± 1.2 µg/105): 104 ± 5 % of control; Synthesis of collagen [3]: 74 ± 5 % of control; Antiatherosclerotic properties of serum are preserved ([4]; after single intake): at least 12 hours; blood serum acquires antiatherosclerotic properties, starting from ([4]; after single intake): 2 h; Intracellular cholesterol content ([4]; serum 1 hr after Verapamil 400 mg, control 221 ± 13 µg cholesterol per 1 mg cellular protein): 97 ± 10 % of control; Intracellular cholesterol content ([4]; serum 2 hr after Verapamil 400 mg): 84 ± 6 % of control; Intracellular cholesterol content ([4]; serum 4 hr after Verapamil 400 mg): 77 ± 8 % of control; Intracellular cholesterol content ([4]; serum 8 hr after Verapamil 400 mg): 85 ± 4 % of control; Intracellular cholesterol content ([4]; serum 12 hr after Verapamil 400 mg): 90 ± 6 % of control; Intracellular cholesterol content ([4]; serum 18 hr after Verapamil 400 mg): 104 ± 4 % of control; Inclusion of [3H] thymidine ([5]; Verapamil 10^-4 M): 20 ± 2 % of control; Inclusion of [3H] thymidine ([5]; Verapamil 10^-5 M): 34 ± 2 % of control; Inclusion of [3H] thymidine ([5]; Verapamil 10^-6 M): 50 ± 2 % of control; Inclusion of [3H] thymidine ([5]; Verapamil 10^-7 M): 86 ± 7 % of control

**Q.** With `CC1=C(/C=C/C(C)=C/C=C/C(C)=C/C=C/C=C(C)/C=C/C=C(C)/C=C/C2=C(C)CCCC2(C)C)C(C)(C)CCC1` [beta-carotene] as the compound, how does the “LDL resistance to oxidation” value [6] read?
**A.** no impact of beta-carotene on LDL resistance to oxidation was detected

**Q.** And the “elasticity of endothelial vessels” value [6]?
**A.** elasticity of endothelial vessels was preserved

**Q.** And the “sizes of sclerotic clots in aorta” value ([7]; 50 mg of beta-carotene/100 g of food)?
**A.** significant reduction

**Q.** And the “cholesterol and triglyceride levels in blood serum” value ([7]; daily 0.2% cholesterol and 15-30 mg of beta-carotene)?
**A.** no verifiable differences

**Q.** And the “beta-carotene level in blood serum increased” value [8]?
**A.** 15 times

**Q.** And the “level of lipoproteins in blood serum” value [8]?
**A.** no visible effect was identified

**Q.** And the “cholesterol and triglyceride levels in blood serum” value [9]?
**A.** dose-dependent reduction

**Q.** With `CC(C)=CCC/C(C)=C/C=C/C(C)=C/C=C/C(C)=C/C=C/C=C(C)/C=C/C=C(C)/C=C/C=C(\C)CCC=C(C)C` [lycopene] as the compound, how does the “return of blood serum concentration to the initial level” value [10] read?
**A.** 24 h

**Q.** What about the “time of maximum concentration in blood serum” value [10] of the same compound?
**A.** 8 h

**Q.** For `O=C(O)c1cccnc1` [nicotinic acid], which “cholesterol level in blood serum lowered” value [1, 11] is on record?
**A.** 10%

**Q.** What about the “triglycerides in blood serum lowered” value [1, 11] of the same compound?
**A.** 20%
